The nature of this series: photoluminescence quantum yield (fraction); solvent given as SMILES.

With `c1ccc(-c2nc(-c3ccc(-c4nc(-c5ccccc5)c(-c5ccccc5)[nH]4)cc3)[nH]c2-c2ccccc2)cc1`, the photoluminescence quantum yield reads like this: (in CC#N) 0.75; (in CS(C)=O) 0.94.

For `COc1ccc(-c2nc(C(C)=O)c(C)o2)cc1`, the photoluminescence quantum yield amounted to 0.056 (in CC#N); 0.053 (in CCO); 0.134 (in CCOC(C)=O); 0.019 (in CCOCC); 0.051 (in ClCCl).

As for `COC(=O)c1[nH]c(-c2ccccc2)c2nnc3c4ccccc4oc3c12`, the photoluminescence quantum yield (in ClCCl) worked out at 0.167.

Turning to `O=C1NC(c2ccccc2)=N/C1=C\c1ccccc1`, the photoluminescence quantum yield (in C1COCCO1) is 0.001.

As for `C(/C=C/c1ccc(-n2c3ccccc3c3ccccc32)cc1)=C\c1ccncc1`, the photoluminescence quantum yield turned out to be 0.55 (in C1COCCO1), 0.32 (in CC#N), 0.78 (in CCCCCCC) and 0.02 (in CO).

As for `CCOC(=O)c1cc(C(=O)OCC)c2cc(OC)ccc2n1`, the photoluminescence quantum yield (in CCO) was determined as 0.53.

On to `Cc1cc(C)c(B(c2ccc(N3c4ccccc4C(C)(C)c4ccccc43)cc2)c2c(C)cc(C)cc2C)c(C)c1`, for which, for the setting “in Cc1ccccc1”, the photoluminescence quantum yield was determined as 0.89.

`[O-]c1ccccc1-c1[nH+]c2c3cccnc3c3ncccc3c2n1-c1ccccc1` showed a photoluminescence quantum yield (in Cc1ccccc1) of 0.125.

Where the note is “in C1CCCCC1”, `C[Si](C)(C)C#Cc1ccc2c3cccc4cccc(c5cccc1c52)c43` gave a photoluminescence quantum yield of 0.88.

With `c1ccc(-c2nnc(-c3ccc(N4c5ccccc5N(c5ccccc5)c5ccccc54)cc3)o2)cc1`, the photoluminescence quantum yield reads like this: (in Cc1ccccc1) 0.12; (in c1cc(-n2c3ccccc3c3ccccc32)cc(-n2c3ccccc3c3ccccc32)c1) 0.45.

`Cc1cc2c3ccccc3sc2c2[nH]c3ccccc3c12` showed a photoluminescence quantum yield (in ClCCl) of 0.058.

In the case of `CCCCN1C(=O)c2cccc3c(C#CC#Cc4ccc5c6c(cccc46)C(=O)N(CCCC)C5=O)ccc(c23)C1=O`, where the note is “in ClCCl”, the photoluminescence quantum yield is 0.81.

`CC1(C)c2ccccc2N2c3ccccc3C3(c4cc(C#N)ccc4-c4ccc(C#N)cc43)c3cccc1c32`: the photoluminescence quantum yield (in Cc1ccccc1) worked out at 0.71.

`CCCC1(CCC)c2cc(-c3ccc4c(c3)C(CCC)(CCC)c3cc(-c5ccc6c(c5)C(CCC)(CCC)c5cc(C(C)(C)CC)ccc5-6)ccc3-4)ccc2-c2ccc(-c3ccc4c(c3)C(CCC)(CCC)c3cc(C(C)(C)CC)ccc3-4)cc21` came in with a photoluminescence quantum yield (in C1CCCCC1) of 0.98.

Compound `O=c1oc2ccccc2cc1-c1cc2ccccc2o1` yielded a photoluminescence quantum yield (in CC#N) of 0.75; a photoluminescence quantum yield (in CCOC(C)=O) of 0.79; a photoluminescence quantum yield (in CS(C)=O) of 0.99; a photoluminescence quantum yield (in Cc1ccccc1) of 0.88; a photoluminescence quantum yield (in O) of 0.15.

`COc1ccc2cc(/C=C/c3ccc([N+](=O)[O-])cc3)c(=O)oc2c1` displayed a photoluminescence quantum yield (in CC#N) of 0.24.

Under “in ClCCl”, `CCCCCCCCCCCCN1C(=O)c2c(c3ccc4cc(-c5ccc(OC)cc5)c(OC)cc4c3c3c2ccc2cc(-c4ccc(OC)cc4)c(OC)cc23)C1=O` came in with a photoluminescence quantum yield of 0.196.

Turning to `CCCCC#Cc1cccc2cc(CCCC)c3cc(-c4cc[b-]5c(c4)c(CCCC)cc4cccc(C#CCCCC)[n+]54)cc[b-]3[n+]12`, for the setting “in C1CCCCC1”, the photoluminescence quantum yield was 0.12.

For the setting “in Cc1ccccc1”, `Cc1cc(-c2nnc(-c3ccccc3)o2)ccc1-n1c2ccccc2c2ccccc21` had a photoluminescence quantum yield of 0.56.

Take `Cc1ccc(C(=O)c2c(C)c3ccc4cccc5c6cccc7ccc2c(c76)c3c45)cc1`: the photoluminescence quantum yield (in ClCCl) was 0.039.

`CC[n+]1c(C=C2C(=O)C(C=C3N(C)c4ccccc4C3(C)C)=C2[O-])sc2ccccc21` yielded a photoluminescence quantum yield (in CC(C)O) of 0.1.

`CCN(CC)c1ccc2cc(C#N)c(=N)oc2c1` came in with a photoluminescence quantum yield (in ClCCl) of 0.84.

`CCCCCCCCOc1ccc(-c2c3c4n(c(-c5ccc(OCCCCCCCC)cc5)c3c3n2[B-](F)(F)[n+]2c(ccc5ccccc52)N=3)[B-](F)(F)[n+]2c(ccc3ccccc32)N=4)cc1` gave a photoluminescence quantum yield (in ClC(Cl)Cl) of 0.83.

In the case of `COc1cccc2cc(C)c3c4ccccc4[nH]c3c12`, where the note is “in ClCCl”, the photoluminescence quantum yield was found to be 0.284.

`CC(C)(C)c1ccc2c(c1)c1cc(C(C)(C)C)ccc1n2-c1ccc(C#Cc2ccc(C=O)cc2)cc1` came in with a photoluminescence quantum yield (in ClCCl) of 0.1.

`Cc1c(C)n2c(COC(=O)c3ccc(F)cc3)c(C)c(=O)n2c1=O`: under “in CCO”, the photoluminescence quantum yield is 0.631.

In turn, `F[B-]1(F)N2C(=Nc3cccc4cccc2c34)c2cccc[n+]21` displayed a photoluminescence quantum yield (in CC#N) of 0.0002, a photoluminescence quantum yield (in CO) of 0.007, a photoluminescence quantum yield (in CS(C)=O) of 0.0005 and a photoluminescence quantum yield (in Cc1ccccc1) of 0.006.

`CCCCCCOc1cc(C=C2C(=O)c3ccccc3C2=O)c(OCCCCCC)cc1C=C1C(=O)c2ccccc2C1=O` came in with a photoluminescence quantum yield (in ClCCl) of 0.697.

For `CC[n+]1c(C=C2C(=O)C(C=C3Sc4cc(Cl)ccc4N3C)=C2[O-])[se]c2ccccc21`, the photoluminescence quantum yield (in CC(C)O) was 0.17.

`CC1CCC(=CS/C=C/c2ccc(/C=C/SC=C3CCC(C)CC3)cc2)CC1` (stereo not drawn) returned a photoluminescence quantum yield (in ClCCl) of 0.027.

In the case of `CCC1(CC)c2cc(C=C(C#N)C#N)ccc2-c2ccc(N(C)C)cc21`, the photoluminescence quantum yield turned out to be 0.04 (in C1CCCCC1); 0.26 (in CC#N); 0.18 (in CCO); 0.39 (in CCOCC); 0.24 (in CS(C)=O); 0.62 (in ClCCl). Moreover, the photoluminescence quantum yield (in c1ccccc1) was 0.22.

`c1ccc(-c2nc(-c3ccccc3)nc(-c3ccc(N4c5ccccc5C5(c6ccccc64)c4ccccc4N(c4ccc(-c6nc(-c7ccccc7)nc(-c7ccccc7)n6)cc4)c4ccccc45)cc3)n2)cc1` returned a photoluminescence quantum yield (in O=P(c1ccccc1)(c1ccccc1)c1ccccc1Oc1ccccc1P(=O)(c1ccccc1)c1ccccc1) of 0.79.

As for `CCCCCCCc1ccc(C2=[N+]3C(=C4c5cc(OCC(CC)CC)c(-c6ccc(CCCCCCC)o6)n5[B-](F)(F)[n+]5nnn(c54)[B-]3(F)F)C=C2OCC(CC)CC)o1`, the photoluminescence quantum yield runs as follows: (in C1CCOC1) 0.04; (in ClCCl) 0.02.

Turning to `Cc1ccc(O)c(-c2[nH]c(=O)n3c2-c2ccccc2C3=O)c1`, the photoluminescence quantum yield was determined as 0.51 (in CC#N), 0.25 (in CO) and 0.62 (in ClCCl).

With `CC(=O)c1ccc(C#Cc2ccc3c(N(C)C)cc(-c4ccccc4)cc3c2)cc1`, the photoluminescence quantum yield (in ClCCl) amounted to 0.01.

`COc1ccc2c(c1)-c1ccccc1C2=O`: the photoluminescence quantum yield by setting is: (in C1CCCCC1) 0.0007; (in CC#N) 0.034; (in CCO) 0.002.

For `c1ccc(Nc2nc(Nc3ccccc3)nc(Nc3ccc4cc5ccccc5cc4c3)n2)cc1`, the photoluminescence quantum yield was found to be 0.62 (in C1COCCO1), 0.43 (in CC#N), 0.41 (in CCCCOCCCC) and 0.3 (in CCOC(C)=O).

In the case of `c1ccc2c(-n3c(-c4ccc(-c5ccc(-c6nc7c8ccccc8c8ccccc8c7n6-c6cccc7ccccc67)c6ccccc56)c5ccccc45)nc4c5ccccc5c5ccccc5c43)cccc2c1`, the photoluminescence quantum yield (in ClCCl) turned out to be 0.75.

As to `CCOC(=O)C(Cc1ccc(O[Si]2(Oc3ccc(CC(NC(C)=O)C(=O)OCC)cc3)n3c4c5ccccc5c3/N=C3N=C(/N=c5/c6ccccc6/c(n52)=N/C2=NC(=N\4)/c4ccccc42)c2ccccc2\3)cc1)NC(C)=O` (stereo not drawn), the photoluminescence quantum yield (in CN(C)C=O) was determined as 0.11.

For `CCC1=C(C2=C(C3=C(CC)S(=O)(=O)c4cc(-c5ccc(C)s5)ccc43)C(F)(F)C(F)(F)C2(F)F)c2ccc(-c3ccc(C)s3)cc2S1(=O)=O`, the photoluminescence quantum yield (in C1COCCO1) turned out to be 0.

Take `CCCCCCN1C(=O)c2cccc3cc(/N=C\c4nc5ccccc5s4)cc(c23)C1=O`: the photoluminescence quantum yield (in ClC(Cl)Cl) stood at 0.002.

Under “in ClCCl”, `CCCCCCCCCCCCN1C(=O)c2c(c3ccc4cc(-c5ccc(-c6ccccc6)cc5)c(OC)cc4c3c3c2ccc2cc(-c4ccc(-c5ccccc5)cc4)c(OC)cc23)C1=O` had a photoluminescence quantum yield of 0.17.

Under “in c1ccccc1”, `CCOC(=O)CSc1nc2c(c(C#N)c1C#N)CCCC2` returned a photoluminescence quantum yield of 0.04.

On to `N#Cc1nc2c(OCc3ccccc3)nc(N)nc2n1Cc1ccccc1`, for which the photoluminescence quantum yield runs as follows: (in C1COCCO1) 0.73; (in CC#N) 0.65; (in CO) 0.14; (in ClCCl) 0.81.

On to `CCOC(=O)CN1C(=O)C2=C(c3ccc(N4CCCCC4)cc3)N(CC(=O)OCC)C(=O)C2=C1c1ccccc1`, for which the photoluminescence quantum yield (in CC#N) came to 0.01, the photoluminescence quantum yield (in CS(C)=O) amounted to 0.12 and the photoluminescence quantum yield (in Cc1ccccc1) is 0.34.

`CCOC(=O)CSc1nc(C)c(C)c(C#N)c1C#N` displayed a photoluminescence quantum yield (in c1ccccc1) of 0.035.

On to `CCCCCCCCCCCCC(CCCCCCCCCC)Cn1c2cc(/C=C/c3nc4ccccc4s3)c3cccc4c5cccc6c(/C=C/c7nc8ccccc8s7)cc1c(c65)c2c34` (stereo not drawn), for which the photoluminescence quantum yield reads like this: (in C1CCCCC1) 0.42; (in CC#N) 0.434; (in Cc1ccccc1) 0.398; (in ClCCl) 0.369.

In turn, `COc1cccc2oc(-c3cc4c(OC)cccc4oc3=O)cc12` came in with a photoluminescence quantum yield (in CS(C)=O) of 0.68.

With `COC(=O)c1noc(-c2ccccc2)c1Cl`, under “in C1CCCCC1”, the photoluminescence quantum yield was 0.368.

For the compound `CCCCCCCCN1c2ccccc2Sc2cc(/C=C/c3ccc(N(c4ccc(/C=C/c5ccc6c(c5)Sc5ccccc5N6CCCCCCCC)cc4)c4ccc(/C=C/c5ccc(/C=C/c6ccc(N(c7ccc(/C=C/c8ccc(N(c9ccccc9)c9ccccc9)cc8)cc7)c7ccc(/C=C/c8ccc(N(c9ccccc9)c9ccccc9)cc8)cc7)cc6)c6nsnc56)cc4)cc3)ccc21`, the photoluminescence quantum yield was 0.031 (in C1CCOC1); 0.062 (in CCOC(C)=O); 0.001 (in CN(C)C=O); 0.349 (in Cc1ccccc1); 0.06 (in ClC(Cl)Cl); 0.003 (in ClCCl).

Values taken from the Deep4Chem optical property database.
